In general, CC50 refers to the concentration that lowers cell viability or growth by half. Lower therefore signals greater toxicity to the cells.

Data set [1] concerns the target HBV core protein (C-terminal truncated core protein containing 149 amino acids of the N-terminal assembly domain) (UniProt P03146). Put plainly: Biochemical capsid assembly assay (fluorescence quenching). To be noted: read-out: Assembly Activity; BODIPY-FL labelled core protein, assembly started with NaCl, read after 6 min. Set-up: rows headed: Assembly Activity; other: BODIPY-FL labelled core protein, assembly started with NaCl, read after 6 min. In outline:
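N-terminal assembly domain (residues 1–149) plus C-terminal Cys150, E. coli-expressed, BODIPY-FL-maleimide labelled, used at 1.0–2.0 μM in 50 mM HEPES pH 7.5 with 0.5% DMSO. Assembly started with NaCl ([…]); fluorescence quenching (ex 477/em 525 nm) read after 6 min. 8-point compound series; EC50 by non-linear regression.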

In data set [2] the test system is HBV. Put plainly: Determination of HBV DNA from the supernatants of HepAD38 cells (anti-HBV activity). Type of data set: cell-based, hepatitis B virus. To be noted: Hepatitis B virus, HePAD38, 144 h, HBV DNA in HepAD38 supernatant, day 6, qPCR, read-out: Cell Activity. In outline:
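HepAD38 cells (60,000/well) seeded in tetracycline-free medium to induce HBV, treated with half-log serial compound dilutions for 6 days at 37 °C. HBV DNA purified from filtered supernatant and quantified by real-time PCR against HBV plasmid standards; EC50 from relative copy numbers by non-linear regression.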

Data set [3] in a line: Cell viability assay (AlamarBlue). To be noted: human, HepAD38 cells.

Read-outs that look alike come from different tables or passages of the source. A value given as a limit tells only on which side of the number the result lay.

Sequence of HBV core protein (C-terminal truncated core protein containing 149 amino acids of the N-terminal assembly domain) (P03146 whole entry, the tested form may be a part): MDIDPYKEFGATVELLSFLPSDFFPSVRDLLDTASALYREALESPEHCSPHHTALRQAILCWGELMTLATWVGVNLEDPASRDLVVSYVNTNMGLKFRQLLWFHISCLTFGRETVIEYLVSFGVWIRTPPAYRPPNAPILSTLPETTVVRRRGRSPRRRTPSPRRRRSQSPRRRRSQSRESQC

In the case of `CC(C)(C)NC(=O)c1cnn2c1CN(C(=O)c1cc3ccccc3[nH]1)CC2` [Example 87, N-tert-butyl-5-(1H-indole-2-carbonyl)-4H,5H,6H,7H-pyrazolo[1,5-a]pyrazine-3-carboxamide], in data set [1], the IC50 was less than 5 µM. Moreover, the EC50 in data set [2] is less than 1 µM. The compound also yielded a half-maximal cytotoxic concentration (CC50) at 6 days in data set [3] greater than 10 µM.

On to `O=C(O)c1cccc(F)c1C1CC(=O)N(c2cnn3c2CN(C(=O)c2cc4ccccc4[nH]2)CC3)C1` (stereo not drawn) [Example 88, 3-fluoro-2-{1-[5-(1H-indole-2-carbonyl)-4H,5H,6H,7H-pyrazolo[1,5-a]pyrazin-3-yl]-5-oxopyrrolidin-3-yl}benzoic Acid], for which the IC50 in data set [1] was less than 5 µM. Further, in data set [2] (printed as number instead of class symbol), the EC50 is greater than 10 µM. Besides, in data set [3], the CC50 at 6 days is greater than 10 µM.

As to `CC(COC(F)F)NC(=O)c1cnn2c1CN(C(=O)c1cc3ccccc3[nH]1)CC2` (stereo not drawn) [Example 89, N-[1-(difluoromethoxy)propan-2-yl]-5-(1H-indole-2-carbonyl)-4H,5H,6H,7H-pyrazolo[1,5-a]pyrazine-3-carboxamide], in data set [1], the IC50 was less than 5 µM. Moreover, in data set [2], the EC50 was less than 1 µM. In data set [3], this compound displayed a CC50 at 6 days greater than 10 µM.

As for `O=C(c1cc2ccccc2[nH]1)N1CCn2ncc(C(=O)N(CCOC(F)F)C3CC3)c2C1` [Example 90, N-cyclopropyl-N-[2-(difluoromethoxy)ethyl]-5-(1H-indole-2-carbonyl)-4H,5H,6H,7H-pyrazolo[1,5-a]pyrazine-3-carboxamide], the IC50 in data set [1] is less than 5 µM. In data set [2], the EC50 was less than 1 µM. For the same compound, the CC50 at 6 days in data set [3] is greater than 10 µM.

For `CN(C(=O)c1cnn2c1CN(C(=O)c1cc3ccccc3[nH]1)CC2)C1(c2ccc(CO)cc2)CC1` [Example 91, N-{1-[4-(hydroxymethyl)phenyl]cyclopropyl}-5-(1H-indole-2-carbonyl)-N-methyl-4H,5H,6H,7H-pyrazolo[1,5-a]pyrazine-3-carboxamide], the IC50 in data set [1] was less than 5 µM. For the same compound, in data set [2], the EC50 is less than 1 µM. Also, the half-maximal cytotoxic concentration (CC50) at 6 days in data set [3] is greater than 10 µM.

For the compound `O=C(NC1(COC(F)F)CC1)c1cnn2c1CN(C(=O)c1cc3cc(F)c(Cl)cc3[nH]1)CC2` [Example 92, 5-(6-chloro-5-fluoro-1H-indole-2-carbonyl)-N-{1-[(difluoromethoxy)methyl]cyclopropyl}-4H,5H,6H,7H-pyrazolo[1,5-a]pyrazine-3-carboxamide], the IC50 in data set [1] is less than 5 µM. Further, the EC50 in data set [2] was less than 1 µM. Further, the CC50 at 6 days in data set [3] is greater than 10 µM.

Turning to `CC1Cn2ncc(C(=O)NC3(COC(F)F)CC3)c2CN1C(=O)c1cc2cc(F)c(Cl)cc2[nH]1` (stereo not drawn) [Example 93, 5-(6-chloro-5-fluoro-1H-indole-2-carbonyl)-N-{1-[(difluoromethoxy)methyl]cyclopropyl}-6-methyl-4H,5H,6H,7H-pyrazolo[1,5-a]pyrazine-3-carboxamide], the IC50 in data set [1] is less than 5 µM. Further, the EC50 in data set [2] was less than 1 µM. Further, the CC50 at 6 days in data set [3] was greater than 10 µM.

Take `CC1Cn2ncc(C(=O)NC3(COC(F)F)CC3)c2CN1C(=O)c1cc2cc(F)c(F)cc2[nH]1` (stereo not drawn) [Example 94, 5-(5,6-difluoro-1H-indole-2-carbonyl)-N-{1-[(difluoromethoxy)methyl]cyclopropyl}-6-methyl-4H,5H,6H,7H-pyrazolo[1,5-a]pyrazine-3-carboxamide]: the IC50 in data set [1] was less than 5 µM. In addition, the EC50 in data set [2] was less than 1 µM. Moreover, the CC50 at 6 days in data set [3] was greater than 10 µM.

For `CCc1cccc2[nH]c(C(=O)N3CCn4ncc(C(=O)N(C)C5(CO)CC5)c4C3)cc12` [Example 95, 5-(4-ethyl-1H-indole-2-carbonyl)-N-[1-(hydroxymethyl)cyclopropyl]-N-methyl-4H,5H,6H,7H-pyrazolo[1,5-a]pyrazine-3-carboxamide], the IC50 in data set [1] is less than 5 µM. Besides, in data set [2], the EC50 is less than 1 µM. This compound showed a half-maximal cytotoxic concentration (CC50) at 6 days in data set [3] greater than 10 µM.

In the case of `CN(C(=O)c1cnn2c1CN(C(=O)c1cc3c(Cl)c(F)ccc3[nH]1)CC2)C1(CO)CC1` [Example 96, 5-(4-chloro-5-fluoro-1H-indole-2-carbonyl)-N-[1-(hydroxymethyl)cyclopropyl]-N-methyl-4H,5H,6H,7H-pyrazolo[1,5-a]pyrazine-3-carboxamide], in data set [1], the IC50 is less than 5 µM. For the same compound, the EC50 in data set [2] was less than 1 µM. In addition, the CC50 at 6 days in data set [3] is greater than 10 µM.

As to `O=C(NC1(COC(F)F)CC1)c1cnn2c1CN(C(=O)c1cc3ccccc3[nH]1)CC2` [Example 97, N-{1-[(difluoromethoxy)methyl]cyclopropyl}-5-(1H-indole-2-carbonyl)-4H,5H,6H,7H-pyrazolo[1,5-a]pyrazine-3-carboxamide], the IC50 in data set [1] is less than 5 µM. Further, the EC50 in data set [2] is less than 1 µM. The compound also gave a CC50 at 6 days in data set [3] greater than 10 µM.

Consider `O=C(NC1(c2ccncc2)CC1)c1cnn2c1CN(C(=O)c1cc3ccccc3[nH]1)CC2` [Example 98, 5-(1H-indole-2-carbonyl)-N-[1-(pyridin-4-yl)cyclopropyl]-4H,5H,6H,7H-pyrazolo[1,5-a]pyrazine-3-carboxamide], for which the IC50 in data set [1] was less than 5 µM. Also, the EC50 in data set [2] is less than 1 µM. This compound also yielded a half-maximal cytotoxic concentration (CC50) at 6 days in data set [3] greater than 10 µM.

As for `CNC(=O)c1cnn2c1CN(C(=O)c1cc3ccccc3[nH]1)CC2` [Example 100, 5-(1H-indole-2-carbonyl)-N-methyl-4H,5H,6H,7H-pyrazolo[1,5-a]pyrazine-3-carboxamide], in data set [1], the IC50 fell in the range of 5 to 10 µM. Moreover, the EC50 in data set [2] was less than 100 µM. The CC50 at 6 days in data set [3] was greater than 10 µM.

Consider `O=C(NC1(C(F)(F)F)CC1)c1cnn2c1CN(C(=O)c1cc3ccccc3[nH]1)CC2` [Example 101, 5-(1H-indole-2-carbonyl)-N-[1-(trifluoromethyl)cyclopropyl]-4H,5H,6H,7H-pyrazolo[1,5-a]pyrazine-3-carboxamide], for which, in data set [1], the IC50 is less than 5 µM. The EC50 in data set [2] is less than 1 µM. The compound further registered a CC50 at 6 days in data set [3] greater than 10 µM.

Turning to `Cc1cc(F)cc2[nH]c(C(=O)N3CCn4ncc(C(=O)NC5(COC(F)F)CC5)c4C3)cc12` [Example 102, N-{1-[(difluoromethoxy)methyl]cyclopropyl}-5-(6-fluoro-4-methyl-1H-indole-2-carbonyl)-4H,5H,6H,7H-pyrazolo[1,5-a]pyrazine-3-carboxamide], in data set [1], the IC50 was less than 5 µM. Also, in data set [2], the EC50 was less than 1 µM. The same compound returned a CC50 at 6 days in data set [3] greater than 10 µM.

Regarding `Cc1c(F)ccc2[nH]c(C(=O)N3CCn4ncc(C(=O)NC5(COC(F)F)CC5)c4C3)cc12` [Example 103, N-{1-[(difluoromethoxy)methyl]cyclopropyl}-5-(5-fluoro-4-methyl-1H-indole-2-carbonyl)-4H,5H,6H,7H-pyrazolo[1,5-a]pyrazine-3-carboxamide], the IC50 in data set [1] was less than 5 µM. Further, in data set [2], the EC50 is less than 1 µM. Also, the CC50 at 6 days in data set [3] is greater than 10 µM.

For `O=C(NC1(COC(F)F)CC1)c1cnn2c1CN(C(=O)c1cc3c(F)c(F)ccc3[nH]1)CC2` [Example 104, 5-(4,5-difluoro-1H-indole-2-carbonyl)-N-{1-[(difluoromethoxy)methyl]cyclopropyl}-4H,5H,6H,7H-pyrazolo[1,5-a]pyrazine-3-carboxamide], the IC50 in data set [1] is less than 5 µM. For the same compound, in data set [2], the EC50 was less than 1 µM. The compound also registered a cytotoxic concentration (CC50) at 6 days in data set [3] greater than 10 µM.

In the case of `O=C(NC1(COC(F)F)CC1)c1cnn2c1CN(C(=O)c1cc3c(Cl)cccc3[nH]1)CC2` [Example 105, 5-(4-chloro-1H-indole-2-carbonyl)-N-{1-[(difluoromethoxy)methyl]cyclopropyl}-4H,5H,6H,7H-pyrazolo[1,5-a]pyrazine-3-carboxamide], the IC50 in data set [1] is less than 5 µM. The EC50 in data set [2] is less than 1 µM. In data set [3], this compound displayed a CC50 at 6 days greater than 10 µM.

The values are drawn from US20220363686A1 (AiCuris GmbH & Co. KG, priority 2018, published 2022).
